# Source: patent US10076576B2, “Minimally toxic prodrugs” (priority 2012, dated 2018)
# “And” between values parts separate entries of the source, which are not always exact repeats. Equal entries are not always repeated. Where two headings read alike, the source gives them in different places.
# Columns and labels:
# [1] = system: MX-1 mammary carcinoma human xenografts; assay: Efficacy after repeated ip injections (2Q1D5×2W), MX-1 xenograft; type: in vivo, NMRI nude mice; conditions: for TGI [% (day)]: day 35; for body weight loss (in words): Doxorubicin 1 μmol/kg (MTD), PhAc-ALGP-Dox 50 μmol/kg, ip 2Q1D5×2W
# Protocol: FIG. 10. […] Drugs or controls were administered by the i.p. route twice a day for five consecutive days (arrows). Treatment was repeated with 72 hours interval between two cycles.
# [2] = system: MX-1 mammary carcinoma human xenografts; assay: Efficacy after repeated iv bolus, MX-1 xenograft; type: in vivo, NMRI nude mice; conditions: day 29
# Protocol: FIG. 3. […] Results represent the mean body weight and tumor volume evolution±SEM (n=4).
# (§1) The anti-tumor activity of doxorubicin and PhAc-ALGP-Dox was tested in models of athymic mice (nude/nude NMRI) carrying ectopic xenografts of human LS-174T colon carcinoma or MX-1 mammary carcinoma.
# (§2) LS174T and MX-1 tumors were established by a subcutaneous implantation of cells (3×10^6 and 10^7 cells injected respectively) in the right flank of 6 weeks old female NMRI nude mice (Harlan). […] The day of the first injection animals were randomly assigned to groups of 4 animals. […] Compounds were delivered by bolus intravenous injection (i.v.) in the lateral tail vein at 10 μl/g. During the course of the experiment, clinical signs, body weight and tumor volume were controlled twice a week. Results are presented as the evolution of mean tumor volume as a function of time. Optimal T/C (ratio of mean tumor volume of treated versus control mice) values were used as a measure of treatment efficacy.
# [3] = Protocol: FIG. 7. Toxicity study of PhAc-ALGP-Dox after single and multiple intraperitoneal (ip) injections in OF-1 mice. Animals were treated with PhAc-ALGP-Dox with different treatment schedules: at 56 μmol/kg 5× (Q1D5 -*-); at 28 μmol/kg 10× (2Q1D5 -▪-); at 560 μmol/kg 1× (-□-); at 112 μmol/kg 5× (Q1D5 -▴-); at 56 μmol/kg 10× (2Q1D5 -×-).
# PhAc-ALGP-Dox was dissolved in saline and administered by single or multiple intraperitoneal (ip) injections […] of OF-1 mice (10 μl/g). PhAc-ALGP-Dox was administered at similar cumulative doses of 280 and 560 μmol/kg following different injections schedules: single ip injection; 5 consecutive daily ip injections at 56 and 112 μmol/kg or twice a day for five consecutive days at the doses of 28 and 56 μmol/kg. The in vivo toxicity was evaluated by monitoring the body weight.
# [4] = system: mouse embryonic fibroblasts (MEF); assay: In vitro cytotoxicity on control fibroblasts (neutral red uptake); type: cell-based; conditions: 48 h
# Protocol: FIG. 5. In vitro cellular toxicity of PhAc-ALGP-Dox and Doxorubicin on Cor.At® cells (mouse embryonic stem cell derived cardiomyocytes). As non-specific control, the test was also performed on inactivated mouse embryonic fibroblasts (MEF). Cells were cultured for 48 h in the presence of drugs and a neutral red uptake test was performed to determine cell viability. Results represent the cytotoxicity curves. The IC50 values were calculated from the cytotoxicity curves using the Prism GraphPad software 5.0.
# The in vitro cardiotoxicity test was carried out in a relevant and predictive in vitro model for cardiac safety screening in early lead optimization using mouse embryonic stem cell derived cardiomyocytes (Cor.At®, Axiogenesis (Germany)). Cor.At® cardiomyocytes provide a standardized, homogenous and reproducible cell system for the in vitro classification of a compound's cardio-cytotoxic potential. After incubation with test compounds, the neutral red uptake test was used to determine effects which directly affect the viability and integrity of cardiac cells when compared to a non-specific reference cell type, e.g. mouse fibroblasts (MEF).
# [5] = system: LS174T colon carcinoma human xenografts; assay: Efficacy after repeated iv bolus, LS174T xenograft; conditions: for TGI [% (day)]: day 28
# Protocol: FIG. 2. Efficacy study of PhAc-ALGP-Dox in comparison with free Doxorubicin in NMRI nude mice bearing LS174T colon carcinoma human xenografts. Drugs or controls were administered by the i.v. route on day 0 and day 7. The mice receiving a constant volume (10 μL/g) of either saline (-●-;-◯-) or of the different dosing solutions: PhAc-ALGP-Dox 140 μmolKg (-▴-) and 160 μmol/kg (-×-); Dox 15 μmol/kg (-♦-). Results represent the mean body weight and tumor volume evolution±SEM (n=4).
# as §1, §2
# [6] = system: orthotopic HCT116 human colon tumors; assay: Orthotopic HCT116 colon carcinoma tumor model; type: in vivo, SCID mice
# Protocol: FIG. 14. Evaluation of the antitumor effect of PhAc-ALGP-dox in SCID mice bearing orthotopic HCT116 human colon tumors. SCID mice were injected orthotopically (in the caecum) with human HCT116 colon tumor cells. One group was treated with saline while groups 2 and 3 received 10 intraperitoneal injections (2Q1D5) of 35 and 50 μmol/kg of PhAc-ALGP-doxorubicin. Primary tumor weights were recorded on day 34 post cell inoculation.
# FIG. 15. Evaluation of the antimetastatic effect (in liver) of PhAc-ALGP-dox in SCID mice bearing orthotopic HCT116 human colon tumors. SCID mice were injected orthotopically (in the caecum) with human HCT116 colon tumor cells. One group was treated with saline while groups 2 and 3 received 10 intraperitoneal injections (2Q1D5) of 35 and 50 μmol/kg of PhAc-ALGP-doxorubicin. Liver metastases were recorded on day 34 post cell inoculation.
# HCT116 cells were subcutaneously injected into SCID mice. Once xenografts were established, they were excised and orthotopically implanted into the ceacum of other female γ-irradiated SCID mice using microsurgical techniques. On day 12 after the cancer cells injection, the mice were randomized in four groups of 16. […] On day 34 after injection into the caecum of colonic cancer cells the animals were sacrificed, the number of metastases was counted macroscopically and the primary tumors weighted.
compound,measurement,setting,value
"COc1cccc2c1C(=O)c1c(O)c3c(c(O)c1C2=O)C[C@@](O)(C(=O)CO)C[C@@H]3O[C@H]1C[C@H](N)[C@H](O)[C@H](C)O1 [Doxorubicin, reference compound]",TGI [% (day)],[1]; 1 μmol/kg ip 2Q1D5×2W,"44% and 44 (35), n = 3%"
same,toxicity (in words),[1]; 1.5 μmol/Kg ip 2Q1D5×2W,very toxic
same,body weight loss (in words),[1],No significant body weight loss
same,TGI [% (day)],"[2]; 8 μmol/kg iv day 0, 3, 6, 9",65 (29) %
same,maximum tolerated dose,"[3]; OF-1, mouse, in vivo, ip",3 µmol/kg
same,viability of MEF,[4]; 0.2 μg/ml,89%
same,toxic effect on MEF (in words),[4]; 20 μg/ml and 2 μg/ml,severe toxic effect
same,TGI [% (day)],[5]; 15 μmol/kg iv day 0 and 7,55 (28) %
same,mortality,"[6]; 2 μmol/kg ip 2Q1D5, SCID mice",all animals died within 10 days
"COc1cccc2c1C(=O)c1c(O)c3c(c(O)c1C2=O)CC(O)(C(=O)CO)CC3OC1CC(NC(=O)C2CCCN2C(=O)CNC(=O)C(CC(C)C)NC(=O)C(C)NC(=O)CP(=O)(O)O)C(O)C(C)O1 (stereo not shown) [PhAc-ALGP-Dox, PhAc-ALGP-doxorubicin]",TGI [% (day)],[1]; 50 μmol/kg ip 2Q1D5×2W,"76% and 76 (35), n = 4%"
same,body weight loss (in words),[1],No significant body weight loss
same,TGI [% (day)],"[2]; 100 μmol/kg iv day 0, 3, 6, 9",60 (29) %
same,body weight loss (in words),"[3]; 56 μmol/kg, 10 ip injections (twice a day for five consecutive days)",No body weight loss
same,maximum body weight loss,"[3]; 112 μmol/kg, five consecutive daily ip injections, day 11",22.5%
same,toxicity (in words),[3]; 560 μmol/kg single ip injection,very toxic
same,body weight lost,"[3]; 560 μmol/kg single ip injection, in one week",25%
same,body weight loss (in words),"[3]; cumulative dose 280 μmol/kg ip, whatever the injection schedule",no body weight loss
same,times less toxic than doxorubicin,[3]; ip twice a day for five consecutive days,about 15 times
same,IC50 on MEF,[4]; up to 20 μg/ml,no IC50 is reached
same,body weight loss (maximum),"[5]; 140 μmol/kg and 160 μmol/kg iv, twice",≤ 10%
same,TGI [% (day)],[5]; 140 μmol/kg iv day 0 and 7,79 (28) %
same,TGI [% (day)],[5]; 160 μmol/kg iv day 0 and 7,81 (28) %
same,number of hepatic metastases,"[6]; 30 μmol/kg, day 34",24
same,primary tumor weight,"[6]; 30 μmol/kg, day 34",0.69 g
same,mice surviving 34 days,"[6]; 35 μmol/kg ip 2Q1D5, groups of 16",12 mice
same,mice surviving 34 days,"[6]; 50 μmol/kg ip 2Q1D5, groups of 16",9 mice
same,mean number of hepatic metastases,"[6]; 50 μmol/kg, day 34",1.78
same,primary tumor weight,"[6]; 50 μmol/kg, day 34",0.44 g
